These results are taken from article PMC3469269 (ACS medicinal chemistry letters, 2012).

One assay addresses hDAT (Homo sapiens, UniProt Q01959). As to the kind of experiment: Inhibition of [3H]-WIN-35,428 binding to hDAT in N2A neuroblastoma cells.
Assay [1] deals with DAT. As to conditions: ref Vaughan et al., unpublished observations; cited from earlier work.
Assay [2] deals with DAT. As to conditions: cited from earlier work.

Each structure is given as a SMILES string.

Chain of hDAT (Q01959 whole entry): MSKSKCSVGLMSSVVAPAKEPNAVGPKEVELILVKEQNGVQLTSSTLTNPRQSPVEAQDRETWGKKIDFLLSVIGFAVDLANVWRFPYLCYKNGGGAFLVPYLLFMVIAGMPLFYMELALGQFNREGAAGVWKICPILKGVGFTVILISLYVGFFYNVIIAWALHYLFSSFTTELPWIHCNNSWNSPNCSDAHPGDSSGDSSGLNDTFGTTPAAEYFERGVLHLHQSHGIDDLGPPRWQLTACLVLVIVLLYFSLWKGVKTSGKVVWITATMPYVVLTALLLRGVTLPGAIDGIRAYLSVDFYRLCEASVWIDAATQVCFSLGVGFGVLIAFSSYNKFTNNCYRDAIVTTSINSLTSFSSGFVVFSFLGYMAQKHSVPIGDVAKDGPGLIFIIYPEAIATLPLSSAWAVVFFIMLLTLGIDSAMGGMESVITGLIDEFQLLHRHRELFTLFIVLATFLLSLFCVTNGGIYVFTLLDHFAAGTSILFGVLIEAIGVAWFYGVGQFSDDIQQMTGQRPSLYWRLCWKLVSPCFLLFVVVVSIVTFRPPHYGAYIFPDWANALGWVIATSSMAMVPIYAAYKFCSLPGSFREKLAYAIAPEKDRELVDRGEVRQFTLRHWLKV

For the compound `COC(=O)[C@H](c1ccc(N=[N+]=[N-])c(I)c1)[C@H]1CCCCN1` (racemic) [(±)-6, (±)-threo-4-Azido-3-iodomethylphenidate], the “fold increase in hDAT affinity” value on hDAT (relative to (±)-14 (aniline replaced by azide)) was ~ 2.3 fold. Regarding `COC(=O)[C@H](c1ccc(N)c(I)c1)[C@H]1CCCCN1` (racemic) [(±)-14], the “fold decrease in binding affinity for hDAT” value at hDAT (relative to aniline (±)-13 (addition of 3-I)) was ~ 1.4 fold.

In the case of `COC(=O)C1C(c2ccc(N=[N+]=[N-])c(I)c2)CC2CCC1N2C` (stereo not shown) [compound 5, 3-(4′-azido-3′-iodo-phenyl)-8-methyl-8-aza-bicyclo-[3.2.1]octane-2-carboxylic acid methyl ester], the “labeling of the DAT in immunoprecipitation and proteolysis experiments” value with DAT [1] was “fails to label the DAT”. For the same compound, in the assay with DAT [2], the “binding to the DAT” value is reported as “high affinity, wash-resistant binding”.
